In ChEMBL document CHEMBL5725391, “1,3-diaminocyclopentane carboxamide derivatives” (2017):

Target: Fatty acid synthase (Homo sapiens, UniProt P49327)
Test: Biochemical Assay of FASN: The biochemical FASN activity testing was performed as 384 well two-time-point kinetic fluorescence intensity assay format in Greiner low volume medium binding 384-well black microtiter plates in a total assay volume of 8 μl and was used for high throughput screen. In each well 3 μl 40 nM human recombinant full-length fatty acid synthase (produced in-house in SF9 cells) were dispensed in the following assay buffer: 50 mM potassium phosphate buffer pH 7.0, 0.005% (w/v) BSA, 2 mM Glutathione, 0.02% Tween-20. Then 2 μl of 200 μM NADPH in assay buffer were added, followed by the addition of the test compounds in 10 dilution concentrations starting with 30 μM (final concentration) to get a final DMSO content of 1% (v/v). The mixture was incubated for at least 15 min at room temperature. After the pre-incubation the enzymatic reaction was started by the addition of 2 μl substrate solution (80 μM acetyl-CoA, 240 μM malonyl-CoA). A first fluorescence intensity measurement (time point one) was performed with an Envision multimode reader (Perkin Elmer LAS Germany GmbH) at excitation wavelength 340 nm (lamp mode) and emission wavelength 460 nm. The reaction was incubated for 30 minutes at room temperature. After this the fluorescence intensity was measured again in the Envision using the same parameters as described above (second time point measurement). The data were analysed by subtracting the first time point measurement value from the second time point measurement value (after the enzymatic reaction). The differences of the emission signals were determined. These reflect directly the conversion rate of NADPH. The full value used was the inhibitor-free reaction. A pharmacological zero value was used like GSK837149A (Sigma-Aldrich) in a final concentration of 5-10 μM. The inhibitory values (IC50) were determined using either the program Symyx Assay Explorer® or Condosseo® from GeneData.

Chain of Fatty acid synthase (P49327 whole entry): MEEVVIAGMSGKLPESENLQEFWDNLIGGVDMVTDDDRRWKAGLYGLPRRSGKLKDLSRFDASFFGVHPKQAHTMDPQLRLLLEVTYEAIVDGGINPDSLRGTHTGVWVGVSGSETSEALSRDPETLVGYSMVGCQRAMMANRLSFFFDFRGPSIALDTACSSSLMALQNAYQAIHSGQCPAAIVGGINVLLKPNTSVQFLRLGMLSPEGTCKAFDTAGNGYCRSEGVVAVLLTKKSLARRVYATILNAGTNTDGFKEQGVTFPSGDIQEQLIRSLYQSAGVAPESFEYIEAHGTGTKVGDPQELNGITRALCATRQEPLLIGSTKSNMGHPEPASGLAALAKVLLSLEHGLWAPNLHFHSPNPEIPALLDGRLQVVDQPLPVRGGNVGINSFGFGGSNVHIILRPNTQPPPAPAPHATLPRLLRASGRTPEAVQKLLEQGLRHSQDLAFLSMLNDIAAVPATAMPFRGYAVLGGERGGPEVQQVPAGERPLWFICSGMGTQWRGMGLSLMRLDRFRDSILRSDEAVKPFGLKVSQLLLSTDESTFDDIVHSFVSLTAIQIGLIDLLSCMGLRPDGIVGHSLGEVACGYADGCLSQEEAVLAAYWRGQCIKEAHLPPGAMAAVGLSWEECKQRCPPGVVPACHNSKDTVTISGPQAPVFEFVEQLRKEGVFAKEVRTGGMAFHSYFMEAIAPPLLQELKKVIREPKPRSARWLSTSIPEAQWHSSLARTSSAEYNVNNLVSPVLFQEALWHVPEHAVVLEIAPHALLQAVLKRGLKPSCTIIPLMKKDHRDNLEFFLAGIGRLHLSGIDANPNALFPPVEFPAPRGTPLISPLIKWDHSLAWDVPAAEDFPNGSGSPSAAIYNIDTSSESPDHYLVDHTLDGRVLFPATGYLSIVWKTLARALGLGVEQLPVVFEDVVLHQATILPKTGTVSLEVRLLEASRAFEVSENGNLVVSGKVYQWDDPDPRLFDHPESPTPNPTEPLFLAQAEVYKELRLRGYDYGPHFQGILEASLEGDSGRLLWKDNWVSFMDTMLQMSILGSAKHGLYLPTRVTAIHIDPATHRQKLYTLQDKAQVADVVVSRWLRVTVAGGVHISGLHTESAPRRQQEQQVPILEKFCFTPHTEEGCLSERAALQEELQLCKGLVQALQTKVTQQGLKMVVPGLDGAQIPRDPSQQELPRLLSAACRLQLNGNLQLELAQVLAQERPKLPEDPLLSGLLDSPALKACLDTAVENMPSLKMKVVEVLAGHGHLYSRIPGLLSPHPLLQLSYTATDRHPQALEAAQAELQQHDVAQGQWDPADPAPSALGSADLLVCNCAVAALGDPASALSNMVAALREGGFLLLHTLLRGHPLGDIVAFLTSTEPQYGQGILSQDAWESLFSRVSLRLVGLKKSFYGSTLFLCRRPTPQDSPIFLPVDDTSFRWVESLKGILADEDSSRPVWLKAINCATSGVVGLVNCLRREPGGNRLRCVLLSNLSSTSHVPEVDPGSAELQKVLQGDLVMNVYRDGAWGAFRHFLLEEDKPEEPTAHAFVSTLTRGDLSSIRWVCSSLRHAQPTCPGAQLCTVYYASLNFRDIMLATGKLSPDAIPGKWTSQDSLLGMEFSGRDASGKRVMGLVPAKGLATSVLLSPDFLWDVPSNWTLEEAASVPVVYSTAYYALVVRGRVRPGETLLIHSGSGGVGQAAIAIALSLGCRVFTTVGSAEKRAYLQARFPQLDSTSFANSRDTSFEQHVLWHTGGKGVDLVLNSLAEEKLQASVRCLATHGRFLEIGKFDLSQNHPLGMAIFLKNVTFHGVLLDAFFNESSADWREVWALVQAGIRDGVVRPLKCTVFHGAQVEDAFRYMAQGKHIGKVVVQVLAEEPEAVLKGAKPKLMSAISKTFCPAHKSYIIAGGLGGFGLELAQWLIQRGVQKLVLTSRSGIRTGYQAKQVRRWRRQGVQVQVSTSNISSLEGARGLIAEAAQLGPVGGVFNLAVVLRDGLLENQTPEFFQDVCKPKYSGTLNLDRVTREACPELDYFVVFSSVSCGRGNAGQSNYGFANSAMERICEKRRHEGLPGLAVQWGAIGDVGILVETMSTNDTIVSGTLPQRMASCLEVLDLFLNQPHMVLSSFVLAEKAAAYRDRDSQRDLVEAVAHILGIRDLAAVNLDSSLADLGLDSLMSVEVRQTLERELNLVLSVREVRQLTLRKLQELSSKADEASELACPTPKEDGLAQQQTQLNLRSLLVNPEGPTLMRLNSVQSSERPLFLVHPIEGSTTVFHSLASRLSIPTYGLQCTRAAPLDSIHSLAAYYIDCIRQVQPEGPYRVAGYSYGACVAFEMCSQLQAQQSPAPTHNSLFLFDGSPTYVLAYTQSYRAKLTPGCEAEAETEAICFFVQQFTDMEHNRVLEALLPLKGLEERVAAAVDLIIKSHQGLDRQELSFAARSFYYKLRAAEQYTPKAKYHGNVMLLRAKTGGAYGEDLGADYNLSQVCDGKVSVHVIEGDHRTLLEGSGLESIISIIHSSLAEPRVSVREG

IC50, < 300 nM:
CCC(=O)N[C@H]1CC[C@@H](N(C)C(=O)c2ccc(-c3cc(F)c4[nH]cc(C(N)=O)c4c3)cc2)C1
CN(C(=O)c1ccc(-c2nc3ccccc3o2)cc1F)[C@@H]1CC[C@H](NC(=O)[C@@H]2CCCO2)C1
CCC(=O)N[C@H]1CC[C@@H](N(C)C(=O)c2cnc(-c3ccc4[nH]ccc4c3)s2)C1
CCC(=O)N[C@H]1CC[C@@H](N(C)C(=O)c2sc(-c3ccc4[nH]ccc4c3)nc2C)C1
CCC(=O)N[C@H]1CC[C@@H](N(C)C(=O)c2ccc(-c3ccc4[nH]cc(F)c4c3)nc2)C1
CCC(=O)N[C@H]1CC[C@@H](N(C)C(=O)c2ccc(-c3ccc(C#N)cc3F)cc2)C1
CCC(=O)N[C@H]1CC[C@@H](N(C)C(=O)c2ccc(-c3cccc4[nH]ncc34)cc2)C1
